Experimental data taken from US11446338B2, “Food, cosmetic and pharmaceutical formulation with an immunomodulatory and protective anti-viral effect” (priority 2018, dated 2022).

System: H1N1 influenza virus (California 2011)
Experiment: Prevention of mortality in immunodeficient mice infected with H1N1 influenza virus
Format: in vivo
Settings: cyclophosphamide-immunodeficient mice, oral 0.2 ml daily, 10 ED90/mouse intranasally

## CC(N)C12CC3CC(CC(C3)C1)C2 (centres unmarked) [Rimantadine]
  Percentage of surviving animals after experiment, %: 50%
  The number of surviving animals after the experiment, n = 10: 5
